Results taken from patent US8067042B1 (Mutual Pharmaceutical Company, Inc., priority 2007, dated 2011).

Legend:
CYP2A6 [1] = tested on: CYP2A6
CYP2C8 [2] = tested on: CYP2C8
CYP2B6 = molecular target: T1, CYP2B6 (Homo sapiens, UniProt P20813); conditions: 50 μM megestrol acetate, microsomes, CYP2B6 inhibitor
T1 sequence (P20813 1-491): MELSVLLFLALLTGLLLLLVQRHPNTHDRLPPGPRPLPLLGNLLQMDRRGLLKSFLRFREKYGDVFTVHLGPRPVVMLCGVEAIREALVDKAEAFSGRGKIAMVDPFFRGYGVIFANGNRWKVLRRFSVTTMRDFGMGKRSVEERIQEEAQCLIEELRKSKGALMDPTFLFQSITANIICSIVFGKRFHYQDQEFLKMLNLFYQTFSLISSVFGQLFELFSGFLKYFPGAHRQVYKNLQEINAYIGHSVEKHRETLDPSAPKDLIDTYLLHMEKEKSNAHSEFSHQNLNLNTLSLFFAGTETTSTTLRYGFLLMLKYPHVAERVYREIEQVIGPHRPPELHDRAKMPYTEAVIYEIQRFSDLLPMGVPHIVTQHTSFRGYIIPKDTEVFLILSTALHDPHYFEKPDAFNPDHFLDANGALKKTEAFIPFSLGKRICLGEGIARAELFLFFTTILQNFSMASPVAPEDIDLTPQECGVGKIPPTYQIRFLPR

CYP2A6 [3] = conditions: 50 μM megestrol acetate, microsomes, tranylcypromine
CYP1A2 [4] = molecular target: T2, CYP1A2 (Homo sapiens, UniProt P05177)
T2 sequence (P05177 1-516): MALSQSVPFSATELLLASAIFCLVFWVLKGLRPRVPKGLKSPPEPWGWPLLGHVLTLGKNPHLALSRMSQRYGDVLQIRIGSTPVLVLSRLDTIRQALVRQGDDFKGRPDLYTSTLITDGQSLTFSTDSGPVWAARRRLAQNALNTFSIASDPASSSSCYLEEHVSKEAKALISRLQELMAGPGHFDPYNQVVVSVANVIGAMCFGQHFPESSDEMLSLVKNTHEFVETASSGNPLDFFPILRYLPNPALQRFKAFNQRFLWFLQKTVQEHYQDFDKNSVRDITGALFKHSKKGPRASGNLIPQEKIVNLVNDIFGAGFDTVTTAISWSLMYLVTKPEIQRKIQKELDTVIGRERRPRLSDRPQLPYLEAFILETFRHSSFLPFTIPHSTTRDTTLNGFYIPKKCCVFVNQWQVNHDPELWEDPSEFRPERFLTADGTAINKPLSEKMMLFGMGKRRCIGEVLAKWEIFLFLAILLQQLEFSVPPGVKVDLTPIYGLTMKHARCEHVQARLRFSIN
Method: (§1) The stock solutions were added to incubation mixtures to obtain the final concentrations of 5 and 50 μM, each containing 1% acetonitrile.
Microsomes were prepared by differential centrifugation of liver homogenates pooled from at least ten human donors.
(§2) After a 5 minute preincubation, nicotinamide adenine dinucleotide phosphate (NADPH) regenerating system (NRS; 1.7 mg/mL β-NADP, 7.8 mg/mL glucose-6-phosphate, and 6 units/mL glucose-6-phosphate dehydrogenase in 2% sodium bicarbonate solution) was added to initiate the reaction. The final incubation volume was 0.5 mL. Incubations were continued for 60 minutes.
(§3) All incubations were conducted at 37±1° C. in a shaking water bath. All incubations were carried out in triplicates.
(§4) After a 5-minute preincubation, 2% sodium bicarbonate solution was added to the incubation mixtures. The final incubation volume was 0.5 mL. Incubations were continued for 60 minutes.
(§5) Incubation reactions, including the matrix controls and metabolic negative controls, were terminated by adding 0.5 mL methanol.
(§6) The samples were analyzed on a Supelcosil LC-18 column (3μ, 120 Å, 3.0×100 mm).

CYP2E1 [5] = format: in vitro ADME; conditions: 50 μM megestrol acetate, microsomes, diethyldithiocarbamate
CYP3A4 [6] = molecular target: T3, CYP3A4 (Homo sapiens, UniProt P08684); format: in vitro ADME; design: purchased BD Biosciences Discovery Labware, Woburn, Mass; host or cells: baculovirus-infected insect cells; conditions: 50 μM megestrol acetate, 20 pmol CYP3A4
Target sequence in this assay (P08684 2-503 limits assumed): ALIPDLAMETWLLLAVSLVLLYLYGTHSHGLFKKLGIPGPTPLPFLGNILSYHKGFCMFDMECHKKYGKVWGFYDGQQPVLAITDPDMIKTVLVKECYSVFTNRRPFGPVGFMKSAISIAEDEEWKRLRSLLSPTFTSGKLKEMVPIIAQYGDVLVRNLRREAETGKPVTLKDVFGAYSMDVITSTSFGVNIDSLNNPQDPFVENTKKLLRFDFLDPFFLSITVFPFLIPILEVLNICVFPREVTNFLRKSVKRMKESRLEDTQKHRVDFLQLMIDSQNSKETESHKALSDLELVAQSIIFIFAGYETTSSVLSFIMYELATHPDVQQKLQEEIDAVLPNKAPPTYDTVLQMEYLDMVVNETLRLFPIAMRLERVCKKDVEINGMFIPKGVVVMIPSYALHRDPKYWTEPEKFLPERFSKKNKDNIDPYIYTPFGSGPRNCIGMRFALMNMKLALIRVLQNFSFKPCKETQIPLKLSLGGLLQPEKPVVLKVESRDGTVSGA

CYP2C9 = CYP2C9 (Homo sapiens, UniProt P11712); format: in vitro ADME; design: purchased BD Biosciences Discovery Labware, Woburn, Mass; host or cells: baculovirus-infected insect cells; conditions: 50 μM megestrol acetate, 20 pmol CYP2C9
Chain of CYP2C9 (P11712 whole entry): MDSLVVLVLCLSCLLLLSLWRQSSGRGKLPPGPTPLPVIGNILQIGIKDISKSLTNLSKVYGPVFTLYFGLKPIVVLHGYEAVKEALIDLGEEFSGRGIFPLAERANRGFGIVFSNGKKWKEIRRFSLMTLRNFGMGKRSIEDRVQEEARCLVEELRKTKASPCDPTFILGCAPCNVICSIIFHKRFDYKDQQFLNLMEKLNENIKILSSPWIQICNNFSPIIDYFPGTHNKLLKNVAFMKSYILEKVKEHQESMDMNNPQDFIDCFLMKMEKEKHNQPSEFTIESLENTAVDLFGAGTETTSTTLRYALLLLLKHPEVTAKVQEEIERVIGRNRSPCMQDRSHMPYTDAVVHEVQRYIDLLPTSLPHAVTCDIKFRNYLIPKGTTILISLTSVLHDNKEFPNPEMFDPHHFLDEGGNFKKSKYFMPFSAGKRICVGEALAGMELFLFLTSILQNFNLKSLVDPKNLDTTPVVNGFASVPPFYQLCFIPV

CYP2E1 [7] = tested on: CYP2E1
Method: as §1, §2, §3, §4, §5, §6

CYP1A2 [8] = molecular target: T2, CYP1A2; format: in vitro ADME; conditions: 50 μM megestrol acetate, microsomes
CYP3A4 [9] = molecular target: T3, CYP3A4; format: in vitro ADME; conditions: 50 μM megestrol acetate, microsomes, ketoconazole
Target sequence in this assay (P08684 whole entry): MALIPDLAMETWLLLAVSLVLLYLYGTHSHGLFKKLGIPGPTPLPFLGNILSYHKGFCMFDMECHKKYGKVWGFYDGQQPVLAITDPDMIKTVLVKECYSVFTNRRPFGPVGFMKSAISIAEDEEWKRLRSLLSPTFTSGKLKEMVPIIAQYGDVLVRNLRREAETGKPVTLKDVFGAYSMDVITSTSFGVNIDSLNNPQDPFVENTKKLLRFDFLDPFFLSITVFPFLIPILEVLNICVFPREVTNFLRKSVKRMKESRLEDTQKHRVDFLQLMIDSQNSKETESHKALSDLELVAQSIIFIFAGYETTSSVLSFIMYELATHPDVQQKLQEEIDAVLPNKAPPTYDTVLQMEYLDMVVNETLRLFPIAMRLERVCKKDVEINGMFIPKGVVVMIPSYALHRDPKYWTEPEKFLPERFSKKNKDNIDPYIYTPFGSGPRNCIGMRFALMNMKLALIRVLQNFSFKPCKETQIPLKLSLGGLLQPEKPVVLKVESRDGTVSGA

CYP2D6 = CYP2D6 (Homo sapiens, UniProt P10635)
Chain of CYP2D6 (P10635 whole entry): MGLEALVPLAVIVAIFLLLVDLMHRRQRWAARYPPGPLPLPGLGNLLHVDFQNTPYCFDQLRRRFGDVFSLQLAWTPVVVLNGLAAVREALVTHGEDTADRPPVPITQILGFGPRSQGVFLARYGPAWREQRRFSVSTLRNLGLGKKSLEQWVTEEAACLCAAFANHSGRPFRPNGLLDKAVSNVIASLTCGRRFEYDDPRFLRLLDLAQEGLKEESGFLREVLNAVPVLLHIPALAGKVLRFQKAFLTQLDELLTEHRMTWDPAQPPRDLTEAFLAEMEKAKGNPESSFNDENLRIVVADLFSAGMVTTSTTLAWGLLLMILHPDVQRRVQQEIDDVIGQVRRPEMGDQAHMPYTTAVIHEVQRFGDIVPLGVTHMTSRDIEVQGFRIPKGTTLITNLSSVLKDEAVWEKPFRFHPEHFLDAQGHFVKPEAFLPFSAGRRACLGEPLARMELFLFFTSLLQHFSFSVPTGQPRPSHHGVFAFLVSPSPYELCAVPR
Method: as §1, §2, §3, §4, §5, §6

CYP2C8 [10] = molecular target: T4, CYP2C8 (Homo sapiens, UniProt P10632); format: in vitro ADME; design: purchased BD Biosciences Discovery Labware, Woburn, Mass; host or cells: baculovirus-infected insect cells; conditions: 50 μM megestrol acetate, 20 pmol CYP2C8
T4 sequence (P10632 1-490): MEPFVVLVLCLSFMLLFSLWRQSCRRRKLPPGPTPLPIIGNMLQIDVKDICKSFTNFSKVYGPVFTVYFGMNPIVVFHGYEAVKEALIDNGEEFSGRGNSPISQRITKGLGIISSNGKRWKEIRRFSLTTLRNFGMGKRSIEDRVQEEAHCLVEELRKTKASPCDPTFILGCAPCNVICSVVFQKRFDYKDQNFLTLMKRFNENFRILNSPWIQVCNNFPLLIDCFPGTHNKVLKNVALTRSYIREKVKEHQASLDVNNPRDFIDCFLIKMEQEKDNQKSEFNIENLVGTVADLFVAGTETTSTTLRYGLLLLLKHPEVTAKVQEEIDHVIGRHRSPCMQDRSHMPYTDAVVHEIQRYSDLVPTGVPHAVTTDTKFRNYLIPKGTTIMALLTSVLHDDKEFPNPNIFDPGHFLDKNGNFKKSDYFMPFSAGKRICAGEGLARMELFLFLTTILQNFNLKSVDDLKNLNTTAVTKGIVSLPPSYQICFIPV

[11] = human, microsomes, 60 min, pH 7.4

## CC(=O)O[C@]1(C(C)=O)CC[C@H]2[C@@H]3C=C(C)C4=CC(=O)CC[C@]4(C)[C@H]3CC[C@@]21C [Megestrol Acetate, 17 α-acetyloxy-6-methylpregna-4,6-diene-3,20-dione]
CYP2A6 [1]
  percent metabolized in presence vs absence of inhibitor (unpaired two-tailed t-test): less than that of the percentage of megestrol acetate metabolized in the absence of the inhibitor
CYP2A6 [1]; [11]
  metabolized in pooled human liver microsomes: > 20%
CYP2C8 [2]
  percent metabolized in presence vs absence of inhibitor (unpaired two-tailed t-test): less than that of the percentage of megestrol acetate metabolized in the absence of the inhibitor
CYP2C8 [2]; 50 μM (with 100 μM Quercetin)
  Percent of Parent Disappearance Individual: 7.51%
CYP2C8 [2]; [11]
  metabolized in pooled human liver microsomes: > 20%
CYP2B6
  difference in metabolism in the presence or absence of the inhibitor (LC/MS): no significant difference in metabolism
CYP2A6 [3]
  difference in metabolism in the presence or absence of the inhibitor (LC/MS): a slight difference in metabolism
CYP1A2 [4]
  percent metabolized in presence vs absence of inhibitor (unpaired two-tailed t-test): does not differ from the percentage of megestrol acetate metabolized in the absence of the inhibitor
CYP1A2 [4]; [11]
  metabolized in pooled human liver microsomes: > 20%
CYP2E1 [5]
  difference in metabolism in the presence or absence of the inhibitor (LC/MS): a significant difference in metabolism
CYP3A4 [6]
  metabolism of megestrol acetate by mass spectrometric methods: More than 50%
CYP2C9
  metabolites formed: no metabolites observed
CYP2E1 [7]
  percent metabolized in presence vs absence of inhibitor (unpaired two-tailed t-test): less than that of the percentage of megestrol acetate metabolized in the absence of the inhibitor
CYP2E1 [7]; [11]
  metabolized in pooled human liver microsomes: > 20%
CYP1A2 [8]
  difference in metabolism in the presence or absence of the inhibitor (LC/MS): no significant difference in metabolism
CYP3A4 [9]
  difference in metabolism in the presence or absence of the inhibitor (LC/MS): a significant difference in metabolism
CYP2D6
  percent metabolized in presence vs absence of inhibitor (unpaired two-tailed t-test): not different from the percentage of megestrol acetate metabolized in the absence of the inhibitor
CYP2D6; [11]
  metabolized in pooled human liver microsomes: > 20%
CYP2C8 [10]
  megestrol acetate converted to its metabolites: 0.72%
